Assay results as given in ChEMBL document CHEMBL1130661, “Design and synthesis of SH3 domain binding ligands: modifications of the consensus sequence XPpXP” (Bioorg Med Chem Lett, 1998).

Test: Compound was tested for the […] domain binding using BIA core binding assay

Compound | IC50 [µM] | Kd [µM]
CC(=O)N1CCC[C@@H]1C(=O)N[C@@H](CCCN=C(N)N)C(=O)N1CCC[C@@H]1C(=O)N[C@@H](CC(C)C)C(=O)N1CCC[C@]12CC[C@H]1SC[C@@H](C(=O)N[C@@H](C)C(=O)N3CCC[C@H]3C(=O)NCC(=O)O)N1C2=O | 46 | 
CC(C)C[C@H](NC(=O)[C@H](CO)NC(=O)[C@@H](N)C(C)C)C(=O)N[C@@H](C)C(=O)N[C@@H](CCCN=C(N)N)C(=O)N[C@@H](CCCN=C(N)N)C(=O)N1CCC[C@H]1C(=O)N[C@@H](CC(C)C)C(=O)N1CCC[C@H]1C(=O)N1CCC[C@H]1C(=O)N[C@@H](CC(C)C)C(=O)N1CCC[C@H]1C(=O)O |  | 1.6
CC(=O)N1CCC[C@@H]1C(=O)N[C@@H](CCCN=C(N)N)C(=O)N1CCC[C@@H]1C(=O)N[C@@H](CC(C)C)C(=O)N1CCC[C@@]12CC[C@@H]1SC[C@H](C(=O)N[C@@H](C)C(=O)N3CCC[C@H]3C(=O)NCC(=O)O)N1C2=O | 75 | 
